In the experiment the target is T1, IKKε (Homo sapiens, UniProt Q14164).
T1 construct: His-tag; made in house; host or cells: Sf9 insect cells
T1 sequence (Q14164 1-716): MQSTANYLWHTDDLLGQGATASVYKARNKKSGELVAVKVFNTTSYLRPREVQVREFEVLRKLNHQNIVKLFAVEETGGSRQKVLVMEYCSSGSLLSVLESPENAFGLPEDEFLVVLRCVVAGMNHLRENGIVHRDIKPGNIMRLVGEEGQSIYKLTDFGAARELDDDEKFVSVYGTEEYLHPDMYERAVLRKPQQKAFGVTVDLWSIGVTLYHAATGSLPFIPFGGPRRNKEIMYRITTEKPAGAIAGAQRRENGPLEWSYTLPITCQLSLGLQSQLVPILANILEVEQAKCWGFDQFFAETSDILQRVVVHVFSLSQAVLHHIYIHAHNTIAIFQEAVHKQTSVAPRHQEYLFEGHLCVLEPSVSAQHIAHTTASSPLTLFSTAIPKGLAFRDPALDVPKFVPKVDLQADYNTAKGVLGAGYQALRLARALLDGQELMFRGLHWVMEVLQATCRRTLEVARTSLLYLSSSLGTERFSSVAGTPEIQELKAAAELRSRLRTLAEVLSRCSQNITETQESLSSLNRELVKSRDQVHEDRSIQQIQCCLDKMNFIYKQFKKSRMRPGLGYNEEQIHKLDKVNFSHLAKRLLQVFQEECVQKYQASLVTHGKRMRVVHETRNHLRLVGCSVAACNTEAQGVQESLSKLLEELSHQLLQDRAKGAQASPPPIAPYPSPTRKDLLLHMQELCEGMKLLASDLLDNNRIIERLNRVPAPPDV
Nature of the experiment: In-vitro IKKε kinase assay ([γ33]ATP filter-plate). Type of experiment: biochemical. The note with it: text bins; read-out: IC50 for inhibition of the kinase activity of IKKε. As to the method: IKKε enzyme was produced as a His-tag fusion in Sf9 cells and used at a final concentration of […]. TBK1 enzyme was produced as a His-tag fusion in Sf9 cells and used at a final concentration of 0.1 μg/ml. Kinase reactions were carried out in reaction buffer using myelin basic protein (Millipore, Ballerica, Mass.) or casein (Sigma, St. Louis, Mo.) as substrate at an ATP concentration equal to twice the Km,ATP value for each enzyme, corresponding to 32 μM ATP for IKKε and 60 μM ATP for TBK1, in the presence of 0.3 μCi [γ^33]ATP (PerkinElmer, Waltham, Mass.). Final enzyme concentrations were 0.1 or 0.015 μg/ml (IKKε) and 0.1 or 0.02 μg/ml (TBK1), representing “normal” and “sensitized” assay conditions respectively. Test compounds (or DMSO solvent as a control) were added prior to initiation of the reactions. Reactions were terminated after 30-45 minutes by adding 3% phosphoric acid. Terminated reactions were transferred to P-81 cellulose phosphate filterplates (Whatman, Inc., Piscataway, N.J.) and washed with 1% phosphoric acid on a vacuum apparatus. After air drying, scintillant (PerkinElmer, Waltham, Mass.) was added and the plates were read on a PerkinElmer TopCount NXT instrument. Counts were normalized to DMSO controls after background subtraction.

SMILES strings stand for the structures. pIC50: −log10 of the molar value.

On to `N#Cc1cc(-c2ccnc(Nc3ccc(N4CCOCC4)cc3)n2)ccc1OC1CCN(C(=O)[C@H](O)C(F)(F)F)CC1` [Example 57, 5-(2-{[4-(Morpholin-4-yl)phenyl]amino}pyrimidin-4-yl)-2-({1-[(2S)-3,3,3-trifluoro-2-hydroxypropanoyl]piperidin-4-yl}oxy)benzonitrile], for which the negative-log IC50 (pIC50) (as a rule, the negative decadic logarithm of the IC50, by convention in mol/L) is 7.30 to 8.30.
To `COc1cc(NC(=O)CN(C)C)cc(Nc2nccc(-c3ccc(OC)c(C#N)c3)n2)c1` [compound 336, N-(3-{[4-(3-Cyano-4-methoxyphenyl)pyrimidin-2-yl]amino}-5-methoxyphenyl)-N~2~,N~2~- dimethylglycinamide] belongs 7.30 to 8.30; to `N#Cc1cc(-c2ccnc(Nc3cccc(Cn4cnnc4)c3)n2)ccc1OC1CCOCC1` [compound 595, 2-(Tetrahydro-2H-pyran-4-yloxy)-5-(2-{[3-(4H-1,2,4-triazol-4-ylmethyl)phenyl]amino}pyrimidin-4-yl)benzonitrile], more than 8.30.
To `COc1cc(NC(=O)c2ccccn2)cc(Nc2nccc(-c3ccc(OC)c(C#N)c3)n2)c1` [compound 365] belongs 6.30 to 7.30.
Turning to `COc1ccc(-c2ccnc(Nc3ccc(NC(=O)NCCCO)cc3)n2)cc1C#N` [Example 7, 1-(4-{[4-(3-Cyano-4-methoxyphenyl)pyrimidin-2-yl]amino}phenyl)-3-(3-hydroxypropyl)urea], the pIC50 was 6.30 to 7.30.
On to `N#Cc1cc(-c2ccnc(Nc3ccc(N4CCOCC4)cc3)n2)ccc1NC(=O)NC1CCCCC1` [Example 61, 1-[2-cyano-4-(2-{[4-(morpholin-4-yl)phenyl]amino}pyrimidin-4-yl)phenyl]-3-cyclohexylurea], for which the pIC50 is 6.30 to 7.30.
Under `CC(C)(C)c1cccc(Nc2nccc(-c3cccc(C#N)c3)n2)c1` [compound 300] stands 6.30 to 7.30; under `N#Cc1cc(-c2ccnc(Nc3ccc(N4CCOCC4)cc3)n2)ccc1OCC1CCN(C(=O)C2C[C@H]2F)CC1` (stereo partly drawn) [Example 108, 2-[(1-{[(2R)-2-fluorocyclopropyl]carbonyl}piperidin-4-yl)methoxy]-5-(2-{[4-(morpholin-4-yl)phenyl]amino}pyrimidin-4-yl)benzonitrile], 6.30 to 7.30.
Under `COc1ccc(Nc2nccc(-c3ccc(OCc4ccccc4)c(C#N)c3)n2)cc1OC` [Example 106, 2-(Benzyloxy)-5-{2-[(3,4-dimethoxyphenyl)amino]pyrimidin-4-yl}benzonitrile] stands 7.30 to 8.30.
Under `COc1ccc(Nc2nccc(-c3ccc(Cl)c(C#N)c3)n2)cc1OC` [Example 182, 2-Chloro-5-{2-[(3,4-dimethoxyphenyl)amino]pyrimidin-4-yl}benzonitrile] stands 7.30 to 8.30; under `CC(Oc1ccc(-c2ccnc(Nc3ccc(N4CCOCC4)cc3)n2)cc1C#N)C(=O)O` (stereo not drawn) [Example 265, 2-[2-Cyano-4-(2-{[4-(morpholin-4-yl)phenyl]amino}pyrimidin-4-yl)phenoxy]propanoic acid], 6.30 to 7.30.
As to `CC(C)C(=O)Nc1ccc(-c2ccnc(Nc3ccc(C(C)CN4CCOCC4)cc3)n2)cc1C#N` (stereo not drawn) [compound 452, N-{2-cyano-4-[2-({4-[1-(morpholin-4-yl)propan-2-yl]phenyl}amino)pyrimidin-4-yl]phenyl}-2-methylpropanamide], the pIC50 was 6.30 to 7.30.
As for `N#Cc1cc(-c2ccnc(Nc3cccc(NC(=O)N4CC(O)C4)c3)n2)ccc1OC1CCOCC1` [compound 598, N-[3-({4-[3-Cyano-4-(tetrahydro-2H-pyran-4-yloxy)phenyl]pyrimidin-2-yl}amino)phenyl]-3-hydroxyazetidin-1-carboxamide], the pIC50 was more than 8.30.
Under `COc1ccc(Nc2ncc(C)c(-c3cccc(C#N)c3)n2)cc1OC` [compound 304, 3-{2-[(3,4-Dimethoxyphenyl)amino]-5-methylpyrimidin-4-yl}benzonitrile] stands 6.30 to 7.30; under `CN1CCN(C2CCN(c3ccc(-c4ccnc(Nc5ccc(N6CCOCC6)cc5)n4)cc3C#N)CC2)CC1` [Example 213, 2-[4-(4-Methylpiperazin-1-yl)piperidin-1-yl]-5-(2-{[4-(morpholin-4-yl)phenyl]amino}pyrimidin-4-yl)benzonitrile], 6.30 to 7.30.
Under `N#Cc1cc(-c2ccnc(Nc3ccc(-c4cn[nH]c4)cc3)n2)ccc1OC1CCOCC1` [compound 579, 5-(2-{[4-(1H-Pyrazol-4-yl)phenyl]amino}pyrimidin-4-yl)-2-(tetrahydro-2H-pyran-4-yloxy)benzonitrile] stands more than 8.30; under `COc1ccc(-c2ccnc(Nc3ccc(NC(=O)NCCCN)cc3)n2)cc1C#N` [Example 10, 1-(3-Aminopropyl)-3-(4-{[4-(3-cyano-4-methoxyphenyl)pyrimidin-2-yl]amino}phenyl) urea], 6.30 to 7.30; under `COc1ccc(-c2ccnc(Nc3ccc(NC(=O)NC4CCCC4)cc3)n2)cc1C#N` [Example 8, 1-(4-{[4-(3-Cyano-4-methoxyphenyl)pyrimidin-2-yl]amino}phenyl)-3-cyclopentylurea], 6.30 to 7.30.
`COc1cc(Nc2nccc(-c3ccc(OC)c(C#N)c3)n2)ccc1C` [compound 325, 2-Methoxy-5-{2-[(3-methoxy-4-methylphenyl)amino]pyrimidin-4-yl}benzonitrile]: the pIC50 was 6.30 to 7.30.
To `N#Cc1cc(-c2ccnc(Nc3ccc(N4CCOCC4)cc3)n2)ccc1OC1CCN(C(=O)C(F)(F)F)CC1` [Example 247, 5-(2-{[4-(Morpholin-4-yl)phenyl]amino}pyrimidin-4-yl)-2-{[1-(trifluoroacetyl)piperidin-4-yl]oxy}benzonitrile] belongs 7.30 to 8.30; to `CC(C)(C)c1ccc(Nc2nccc(-c3cccc(C#N)c3)n2)cc1` [Example 282, 3-{2-[(4-tert-Butylphenyl)amino]pyrimidin-4-yl}benzonitrile], 6.30 to 7.30; to `CC(C)(O)C(=O)N1CCC(Oc2ccc(-c3ccnc(Nc4ccc(N5CCOCC5)cc4)n3)cc2C#N)CC1` [Example 74, 2-{[1-(2-Hydroxy-2-methylpropanoyl)piperidin-4-yl]oxy}-5-(2-{[4-(morpholin-4-yl)phenyl]amino}pyrimidin-4-yl)benzonitrile], 6.30 to 7.30.
To `N#Cc1cc(-c2ccnc(Nc3ccc(N4CCOCC4)cc3)n2)ccc1NC(=O)C1CCCC1` [Example 56, N-[2-cyano-4-(2-{[4-(morpholin-4-yl)phenyl]amino}pyrimidin-4-yl)phenyl] cyclopentane-carboxamide] belongs 7.30 to 8.30; to `C[C@@H](O)C(=O)N1CCC(Oc2ccc(-c3ccnc(Nc4ccc(N5CCOCC5)cc4)n3)cc2C#N)CC1` [Example 140, 2-({1-[(2R)-2-hydroxypropanoyl]piperidin-4-yl}oxy)-5-(2-{[4-(morpholin-4-yl)phenyl]amino}pyrimidin-4-yl)benzonitrile], 7.30 to 8.30.
Under `CN(C)c1cccc(Nc2nccc(-c3cccc(C#N)c3)n2)c1` [compound 379, 3-(2-{[3-(Dimethylamino)phenyl]amino}pyrimidin-4-yl)benzonitrile] stands 6.30 to 7.30; under `COc1cc(Nc2nccc(-c3ccc(OC4CCNCC4)c(C#N)c3)n2)ccc1S(=O)(=O)NCCCN(C)C` [compound 398], 6.30 to 7.30; under `N#Cc1cccc(-c2ccnc(Nc3cccc(Cl)c3)n2)c1` [compound 338, 3-{2-[(3-Chlorophenyl)amino]pyrimidin-4-yl}benzonitrile], 6.30 to 7.30.

The values are drawn from US20150352108A1, “AMINO-PYRIMIDINE COMPOUNDS AS INHIBITORS OF TBK1 AND/OR IKK EPSILON” (Alzheimer's Institute of America, priority 2009, published 2015).
